According to PMC12211128, “Safety, tolerability, pharmacokinetic and pharmacodynamic effects of the muscarinic M1 positive allosteric modulator VU0467319 for Alzheimer’s disease: a single ascending-dose study in healthy participants” (Alzheimer's Research & Therapy, 2025):

Legend:
healthy participants [1] = test: Selective Reminding Task (SRT); format: in vivo, human; conditions: for SRT Delayed Recall / SRT Immediate Recall / SRT Recall Consistency / SRT Recall Failure: mean (SD)
From the text: The Selective Reminding Task (SRT; [36]) was used to test immediate and delayed episodic memory. Participants were read a list of 16 words and must immediately recall the list across eight trials, then again after a 20-minute delay. The outcome measures were the SRT total immediate recall across the eight trials, recall consistency as the number of words correctly recalled on two sequential trials, recall failure as the number of words not recalled on two sequential trials, and the delayed recall after the 20-min delay.
(§1) Cognitive data: In this exploratory analysis, each outcome variable of the cognitive data was examined in a mixed model analysis of variance with one between-subjects factor of VU319 dose (0, 60, 120, 240, 400, 600 mg) and a within-subjects factor of testing session (pre-dose vs. post-dost administration). Post-hoc analysis compared each of the VU319 dose cohorts against the placebo group. Because the participants were healthy adults with normal cognitive function, we considered effects between no reductions in function to small improvement (d = 0.0–0.20) to be a positive result. For the food effect study, only the participants who received VU319 were examined due to the disproportionately small placebo group (n = 2). A within-subjects ANOVA including food condition (fasted/fed) and testing session (pre-dose vs. post-dose administration) was performed on each outcome variable.
The Selective Reminding Task (SRT; (Buschke & Fuld, 1974)) was used to test immediate and delayed episodic recall. Participants were read a list of 16 words and must immediately recall the list across 8 trials. […] Upon completing the immediate recall portion of the SRT and after a 20‐minute delay, participants were asked to complete a single delayed recall trial. SRT total immediate recall was analyzed using the number of correctly recalled words across trials 1–8, total immediate recall consistency was analyzed using the number of words correctly recalled on two sequential trials across trials 1–8, SRT total immediate recall failure was analyzed using the number of words not recalled on two sequential trials across trials 1–8, and total delayed recall was analyzed using the number of words correctly recalled after a 20-min delay.

healthy participants [2] = test: Critical flicker fusion task (CFF); format: in vivo, human; conditions: for CFF Median Ascending score / CFF Median Descending score: mean (SD)
From the text: (§2) The critical flicker fusion task (CFF; [30]) was used to test perceptual vigilance using the frequency of a flickering LED (between 12 and 50 Hz). The outcome variable for CFF is frequency (Hz) for ascending and descending trials. In the ascending trials, the participants pressed a button indicating when the light flickered to a speed where they appear to be continuously on or fused. In the descending trials, the participants pressed a button when the frequency of apparently fused lights is decreased such that lights begin to appear to be flashing.
as §1
as §2, with “(Kupke & Lewis, 1989))” for “[30])”, “12-50” for “12 and 50”

[3] = Food effect study 120 mg, Fasting, Post-Drug
[4] = Food effect study 120 mg, Fasting, Pre-Drug
[5] = Food effect study 120 mg, Fed, Post-Drug
[6] = Food effect study 120 mg, Fed, Pre-Drug

## Cn1cc2c(-c3cc(F)c(CN4Cc5ncccc5C4=O)c(F)c3)cccc2n1 [VU319]
Healthy participants [1]; [3]
  SRT Delayed Recall: 11.3 (3.97)
  SRT Immediate Recall: 88.9 (19.83)
  SRT Recall Consistency: 55.7 (26.22)
  SRT Recall Failure: 10.2 (9.74)
Healthy participants [1]; [4]
  SRT Delayed Recall: 11.5 (3.69)
  SRT Immediate Recall: 86.6 (17.61)
  SRT Recall Consistency: 51.1 (24.64)
  SRT Recall Failure: 9.4 (8.54)
Healthy participants [1]; [5]
  SRT Delayed Recall: 10.9 (3.92)
  SRT Immediate Recall: 88.9 (20.45)
  SRT Recall Consistency: 53.4 (27.22)
  SRT Recall Failure: 8.3 (10.58)
Healthy participants [1]; [6]
  SRT Delayed Recall: 11.2 (3.33)
  SRT Immediate Recall: 88.7 (13.59)
  SRT Recall Consistency: 54 (18.33)
  SRT Recall Failure: 8 (6.11)
Healthy participants [1]; SAD study, 60 mg, Post-Drug
  SRT Delayed Recall: 8.83 (3.55)
  SRT Immediate Recall: 71.67 (14.95)
  SRT Recall Consistency: 35.33 (18.32)
  SRT Recall Failure: 19.83 (9.37)
Healthy participants [1]; SAD study, 60 mg, Pre-Drug
  SRT Delayed Recall: 9 (3.52)
  SRT Immediate Recall: 79.83 (13.18)
  SRT Recall Consistency: 44 (22.93)
  SRT Recall Failure: 13.5 (4.46)
Healthy participants [1]; SAD study, 120 mg, Post-Drug
  SRT Delayed Recall: 9.5 (5.86)
  SRT Immediate Recall: 84 (19.55)
  SRT Recall Consistency: 49.33 (25.15)
  SRT Recall Failure: 12.5 (10.78)
Healthy participants [1]; SAD study, 120 mg, Pre-Drug
  SRT Delayed Recall: 10.17 (5.42)
  SRT Immediate Recall: 84.67 (20.24)
  SRT Recall Consistency: 51.67 (27.6)
  SRT Recall Failure: 13 (9.76)
Healthy participants [1]; SAD study, 240 mg, Post-Drug
  SRT Delayed Recall: 9 (2.45)
  SRT Immediate Recall: 80.67 (13.65)
  SRT Recall Consistency: 41.5 (16.11)
  SRT Recall Failure: 10.83 (10.83)
Healthy participants [1]; SAD study, 240 mg, Pre-Drug
  SRT Delayed Recall: 10.67 (1.86)
  SRT Immediate Recall: 87.33 (11.38)
  SRT Recall Consistency: 54.33 (13.31)
  SRT Recall Failure: 10.83 (7.73)
Healthy participants [1]; SAD study, 400 mg, Post-Drug
  SRT Delayed Recall: 7.83 (3.87)
  SRT Immediate Recall: 70.83 (16.03)
  SRT Recall Consistency: 33.33 (18.24)
  SRT Recall Failure: 20 (11.15)
Healthy participants [1]; SAD study, 400 mg, Pre-Drug
  SRT Delayed Recall: 8.83 (4.79)
  SRT Immediate Recall: 76.33 (24.51)
  SRT Recall Consistency: 42.33 (29.85)
  SRT Recall Failure: 19 (15.66)
Healthy participants [1]; SAD study, 600 mg, Post-Drug
  SRT Delayed Recall: 8.67 (4.8)
  SRT Immediate Recall: 85.83 (21.7)
  SRT Recall Consistency: 51 (27.8)
  SRT Recall Failure: 10.67 (12.58)
Healthy participants [1]; SAD study, 600 mg, Pre-Drug
  SRT Delayed Recall: 11.83 (1.94)
  SRT Immediate Recall: 91.17 (11.81)
  SRT Recall Consistency: 59.83 (13.39)
  SRT Recall Failure: 8.17 (5.27)
Healthy participants [1]; SAD study, all p > 0.2
  SRT four outcome measures, effect of dose: did not show a significant effect of dose, nor dose by time
Healthy participants [1]; food effect study, 120 mg
  SRT performance, effect of food or time: no impact of food or time
Healthy participants [2]; [3]
  CFF Median Ascending score: 39.03 (5.2) Hz
  CFF Median Descending score: 38.59 (4.57) Hz
Healthy participants [2]; [4]
  CFF Median Ascending score: 34.62 (9.06) Hz
  CFF Median Descending score: 38.49 (5.19) Hz
Healthy participants [2]; [5]
  CFF Median Ascending score: 39.29 (4.38) Hz
  CFF Median Descending score: 39.36 (4.08) Hz
Healthy participants [2]; [6]
  CFF Median Ascending score: 39.09 (5.81) Hz
  CFF Median Descending score: 39.25 (3.25) Hz
Healthy participants [2]; SAD study, 60 mg, Post-Drug
  CFF Median Ascending score: 37.67 (3.1) Hz
  CFF Median Descending score: 38.32 (7.51) Hz
Healthy participants [2]; SAD study, 60 mg, Pre-Drug
  CFF Median Ascending score: 36.32 (4.6) Hz
  CFF Median Descending score: 37 (5.35) Hz
Healthy participants [2]; SAD study, 120 mg, Post-Drug
  CFF Median Ascending score: 36.53 (3.87) Hz
  CFF Median Descending score: 38.68 (3.31) Hz
Healthy participants [2]; SAD study, 120 mg, Pre-Drug
  CFF Median Ascending score: 37.33 (2.38) Hz
  CFF Median Descending score: 40.23 (4.95) Hz
Healthy participants [2]; SAD study, 240 mg, Post-Drug
  CFF Median Ascending score: 38.12 (4.1) Hz
  CFF Median Descending score: 37.25 (6.89) Hz
Healthy participants [2]; SAD study, 240 mg, Pre-Drug
  CFF Median Ascending score: 32.72 (9.97) Hz
  CFF Median Descending score: 37.1 (6.52) Hz
Healthy participants [2]; SAD study, 400 mg, Post-Drug
  CFF Median Ascending score: 39.98 (3.97) Hz
  CFF Median Descending score: 40.05 (3.01) Hz
Healthy participants [2]; SAD study, 400 mg, Pre-Drug
  CFF Median Ascending score: 37.92 (3.7) Hz
  CFF Median Descending score: 39.67 (2.1) Hz
Healthy participants [2]; SAD study, 600 mg, Post-Drug
  CFF Median Ascending score: 36.58 (3.14) Hz
  CFF Median Descending score: 39.73 (5.18) Hz
Healthy participants [2]; SAD study, 600 mg, Pre-Drug
  CFF Median Ascending score: 35.45 (3.61) Hz
  CFF Median Descending score: 39.22 (5.92) Hz
Healthy participants [2]; SAD study, both p > 0.3
  CFF ascending trial, effect of dose: no effect of dose, nor a dose by time interaction
Healthy participants [2]; food effect study, 120 mg, p = 0.07
  CFF ascending condition, post- vs pre-dose, effect size d: 1.37
